From EPA's ToxValDB 9.5 (doi:10.2903/j.efsa.2010.1905)
≈ marks a conversion by molar mass, not a printed value.

Columns and labels:
Aphidius rhopalosiphi = experiment: LR50; higher = less toxic; settings: not reported; mortality
Typhlodromus pyri = experiment: LR50; higher = less toxic; settings: not reported; mortality
Apis mellifera = settings: acute; oral; unspecified; mortality
Colinus virginianus = settings: for NOEC: reproduction developmental
Pimephales promelas = settings: chronic/long-term; duration: 32 days; growth
Anas platyrhynchos = settings: oral, mortality
Mus musculus = settings: acute; oral; mortality
Tagia sp. = settings: acute; duration: 14 days; mortality
Cyprinus carpio = settings: acute; duration: 96 hours; mortality
Daphnia magna = settings: chronic/long-term; duration: 21 days; reproduction
Neomysis kadiakensis = settings: chronic/long-term; duration: 28 days; reproduction
[1] = subchronic, duration: 90 days, oral

SMILES	LR50 (Aphidius rhopalosiphi)	LR50 (Typhlodromus pyri)	LD50 (Apis mellifera)	LC50 (Colinus virginianus; acute, oral, diet, mortality)	LD50 (Colinus virginianus; acute, oral, mortality)	NOEC (Colinus virginianus)	NOEC (Pimephales promelas)	LD50 (Anas platyrhynchos; acute, unspecified)	LC50 (Anas platyrhynchos; short-term, feed)	LD50 (Mus musculus)	NOAEL (Rattus norvegicus; chronic, mortality)	NOAEL (Rattus norvegicus; developmental, development)	NOAEL (Rattus norvegicus; [1])	LC50 (Tagia sp.)	LC50 (Cyprinus carpio)	NOEC (Daphnia magna)	NOEC (Neomysis kadiakensis)	NOAEL (Rattus norvegicus; reproduction developmental, reproduction)
CCCCOC(=O)[C@@H](C)Oc1ccc(Oc2ccc(C(F)(F)F)cn2)cc1 [Fluazifop-P-butyl]	177 g/ha	5.6 g/ha	> 200 µg/piece	> 1070 mg/kg-day	> 2000 mg/kg-day	86.8 mg/kg-day	0.077 mg/L	> 3960 mg/kg-day	> 942 mg/kg-day	> 2000 mg/kg-day	6.72 mg/kg-day	2 mg/kg-day	0.9 mg/kg-day	–	–	–	–	–
C[C@@H](Oc1ccc(Oc2ccc(C(F)(F)F)cn2)cc1)C(=O)O [Fluazifop-P]	–	–	–	–	–	–	1.46 mg/L	–	–	–	–	2 mg/kg-day	0.9 mg/kg-day	–	–	–	–	–
CCCCOC(=O)C(C)Oc1ccc(Oc2ccc(C(F)(F)F)cn2)cc1 (configuration not stated) [Fluazifop-butyl]	–	–	–	–	–	3.95 mg/kg-day	–	–	–	–	–	–	–	> 1000 mg/kg	1.31 µg/mL (≈ 3.42 µM)	0.25 mg/L	0.0477 mg/L	6.72 mg/kg-day
